This is an account of results in ChEMBL document CHEMBL1145055, “A novel class of nonpeptidic biaryl inhibitors of human cathepsin K” (J Med Chem, 2003).

As a reminder, the IC50 is the midpoint of a concentration-inhibition curve. What is called Ki is the dissociation constant of the complex between target and ligand, obtained from inhibition or displacement.

The target in assay [1] is T1, Cathepsin K (Homo sapiens, UniProt P43235).
T1 sequence (P43235 whole entry): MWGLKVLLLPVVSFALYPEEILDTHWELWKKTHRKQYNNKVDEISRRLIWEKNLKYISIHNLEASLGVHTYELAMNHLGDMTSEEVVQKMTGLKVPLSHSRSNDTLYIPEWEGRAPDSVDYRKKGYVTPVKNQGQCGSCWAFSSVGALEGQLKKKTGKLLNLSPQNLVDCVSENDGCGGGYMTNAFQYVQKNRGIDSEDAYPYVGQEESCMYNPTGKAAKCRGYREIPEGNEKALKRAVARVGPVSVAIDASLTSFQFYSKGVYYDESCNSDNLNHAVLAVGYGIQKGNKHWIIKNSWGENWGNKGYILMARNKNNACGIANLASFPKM
Kind of assay: In vitro inhibitory activity against human cathepsin K, using 2 uM of Z -Leu-Arg-AMC as substrate.

Assay [2] addresses T2, Cathepsin K (Homo sapiens) (UniProt P43235).
T2 sequence (whole entry): T1 sequence (P43235 whole entry)
Description: Pre steady state kinetic parameter K off was determined.

For assay [3], the target named is T1, Cathepsin K. Kind of assay: In vitro inhibitory activity against Human Cathepsin K using 2 uM of Z -Leu-Arg-AMC as substrate.

Consider `CC(C)CC(C(=O)NC1(C#N)CC1)c1cccc(-c2ccc(N3CCNCC3)cc2)c1` (stereo not drawn), for which the 50% inhibitory concentration (IC50) at Cathepsin K [1] stood at 3 nM. This compound showed a k off in assay [2] of 0.0014 s⁻¹. On Cathepsin K [3], this compound came in with an inhibitory constant (Ki) of 10 nM.
